The numbers were not newly measured in patent publication US20220240500A1, “Cryopreservation compositions and methods involving nanowarming” (REGENTS OF THE UNIVERSITY OF MINNESOTA, priority 2016, published 2022), which cites them from elsewhere.

Structures are written as SMILES.

This data set relates to zebrafish embryos. As to conditions: 2.3 M injected; previous studies.

Consider `CC(O)CO` (stereo not shown) [Propylene Glycol], for which the “survival from injection into the zebrafish embryo” value is “high survival”.
